One assay relates to classical pathway. Kind of assay: Classical pathway hemolysis assay (Ab-sensitized sheep erythrocytes). The assay is classed as cell-based, human. The protocol: Everything was prepared at RT except for the serum which was kept on ice so that the complement cascade would not start. Washed Ab-sensitized sheep erythrocytes (EA) were added to a V-shaped 96-well plate together with the dilution series of antibodies in a buffer appropriate for the classical pathway. Normal human serum was added at a final assay concentration of 2% and mixed gently with the other components. Complement activation was started by incubating the plates at 37° C. shaking continuously at 600 rpm to prevent the total sedimentation of the EAs. Hemolysis reaction was stopped after 30 min with the addition of ice-cold NaCl-solution containing 10 mM EDTA. Plates were centrifuged for 2 min at 1000×g at 4° C. to pellet the non-lysed EAs. […] Percentage of hemolysis was calculated: (OD test sample−OD BG or EDTA ctrl)/(OD full lysis−OD BG or EDTA ctrl)×100. IC50 values were calculated using Xlfit.

For assay [1], the system named is C3bBb from Macaca Fascicularis. Kind of assay: Cross-reactivity hemolysis assay, Macaca Fascicularis. To be noted: 37° C., 20 min. It counts as cell-based, Macaca Fascicularis (Cynomolgus).
In assay [2] the test system is alternative complement pathway in human serum. Kind of assay: Wieslab Complement system Alternative pathway assay. The assay is classed as biochemical. Particulars: comparative compounds, Table E14.
Procedure: This kit is an enzyme immunoassay for the determination of functional alternative complement pathway in human serum.
It combines principles of a hemolytic assay for complement activation with the use of specific antibodies to detect the generated neoantigen, which is proportional to the functional activity of the complement pathway. […] This mixture was diluted 1:18 in a diluent with a specific blocker (so that only AP will be activated) and incubated for another 15 min at RT. Solution was added to a 96-well plate specifically coated with activators of the AP and incubated for 60 min at 37° C. Wells were washed and C5b-9 detected following the protocol.
In the next assay the target is T1, C3 convertase (C3bBb) (Homo sapiens, UniProt P00751+P01024).
T1 construct: C3b fragment of complement component C3; from tissue; host or cells: plasma (factor B and factor D)
T1 sequence (P01024 23-667 limits assumed): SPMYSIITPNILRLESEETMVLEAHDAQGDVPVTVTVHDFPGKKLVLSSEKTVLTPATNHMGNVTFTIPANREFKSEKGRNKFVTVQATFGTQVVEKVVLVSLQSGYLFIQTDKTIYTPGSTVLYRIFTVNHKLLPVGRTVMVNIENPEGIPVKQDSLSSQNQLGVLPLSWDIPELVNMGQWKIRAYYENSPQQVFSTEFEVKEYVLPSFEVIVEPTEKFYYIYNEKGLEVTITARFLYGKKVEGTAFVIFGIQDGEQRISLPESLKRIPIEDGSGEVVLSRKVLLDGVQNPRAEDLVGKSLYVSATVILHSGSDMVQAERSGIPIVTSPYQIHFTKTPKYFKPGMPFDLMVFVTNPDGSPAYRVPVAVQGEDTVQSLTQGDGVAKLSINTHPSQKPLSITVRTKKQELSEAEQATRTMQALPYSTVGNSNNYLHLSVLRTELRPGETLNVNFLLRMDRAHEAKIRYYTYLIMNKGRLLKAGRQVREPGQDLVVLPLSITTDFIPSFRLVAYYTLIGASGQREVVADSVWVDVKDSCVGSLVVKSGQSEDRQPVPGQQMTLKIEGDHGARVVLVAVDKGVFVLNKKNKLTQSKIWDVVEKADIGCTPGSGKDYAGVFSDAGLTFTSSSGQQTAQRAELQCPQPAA
T1 sequence (P01024 749-1663 limits assumed): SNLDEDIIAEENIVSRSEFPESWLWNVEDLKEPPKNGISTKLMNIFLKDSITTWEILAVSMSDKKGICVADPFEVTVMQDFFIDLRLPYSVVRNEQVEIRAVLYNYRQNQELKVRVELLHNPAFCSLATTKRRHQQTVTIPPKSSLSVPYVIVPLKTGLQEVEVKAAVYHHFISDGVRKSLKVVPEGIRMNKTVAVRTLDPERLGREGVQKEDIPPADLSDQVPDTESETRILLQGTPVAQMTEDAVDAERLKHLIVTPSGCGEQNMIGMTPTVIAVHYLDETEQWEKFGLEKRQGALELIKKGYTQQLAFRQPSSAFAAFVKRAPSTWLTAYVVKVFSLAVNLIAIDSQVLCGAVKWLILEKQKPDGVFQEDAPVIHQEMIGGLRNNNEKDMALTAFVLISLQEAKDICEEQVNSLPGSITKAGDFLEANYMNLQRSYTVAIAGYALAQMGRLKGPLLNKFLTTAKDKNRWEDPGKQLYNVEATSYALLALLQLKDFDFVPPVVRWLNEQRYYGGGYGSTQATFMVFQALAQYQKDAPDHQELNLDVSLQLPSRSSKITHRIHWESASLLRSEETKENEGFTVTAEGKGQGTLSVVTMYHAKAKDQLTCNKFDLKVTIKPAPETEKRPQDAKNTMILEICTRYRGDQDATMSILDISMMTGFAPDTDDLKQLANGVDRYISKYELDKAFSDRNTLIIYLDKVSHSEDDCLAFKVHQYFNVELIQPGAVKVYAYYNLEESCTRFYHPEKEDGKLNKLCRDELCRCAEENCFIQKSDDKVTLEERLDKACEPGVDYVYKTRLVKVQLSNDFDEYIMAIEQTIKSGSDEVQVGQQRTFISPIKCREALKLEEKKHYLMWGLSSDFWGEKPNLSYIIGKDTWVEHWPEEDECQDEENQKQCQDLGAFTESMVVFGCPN
T1 sequence (P00751 260-764 limits assumed): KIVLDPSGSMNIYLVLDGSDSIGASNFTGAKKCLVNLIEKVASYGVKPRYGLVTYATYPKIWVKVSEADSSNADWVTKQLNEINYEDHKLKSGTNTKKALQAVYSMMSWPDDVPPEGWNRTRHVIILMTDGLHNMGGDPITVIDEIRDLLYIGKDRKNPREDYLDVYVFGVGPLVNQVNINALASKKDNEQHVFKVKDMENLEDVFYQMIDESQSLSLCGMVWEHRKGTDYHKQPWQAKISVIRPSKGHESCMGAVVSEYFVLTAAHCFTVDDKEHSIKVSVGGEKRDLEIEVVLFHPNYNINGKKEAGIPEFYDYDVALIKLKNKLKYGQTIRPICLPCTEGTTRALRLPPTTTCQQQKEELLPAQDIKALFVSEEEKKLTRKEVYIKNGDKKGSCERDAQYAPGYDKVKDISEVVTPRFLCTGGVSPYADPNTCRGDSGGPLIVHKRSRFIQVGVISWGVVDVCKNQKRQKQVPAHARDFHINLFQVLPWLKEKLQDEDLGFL
Kind of assay: BLI based C3b deposition assay. It counts as biochemical. Particulars: comparative compounds, Table E14. The protocol: In another experiment, the potency of the antibodies was assessed via a BLI based C3b deposition assay.
BLI based C3b deposition assay: The activated carbonyl group created upon C3 cleavage by the C3 convertase reacts and forms covalent adducts with nucleophiles in close proximity to the enzyme. We utilized this property to measure convertase activity by quantifying the C3b mass deposited on a BLI sensor loaded with C3bBb and exposed to C3.

Assay [3] deals with C3bBb from Chlorocebus sabaeus. Kind of assay: Cross-reactivity hemolysis assay, Chlorocebus sabaeus. Particulars: RT, 20 min. The assay is classed as cell-based, Chlorocebus sabaeus (African Green Monkey).

As usually defined, the IC50 is the midpoint of a concentration-inhibition curve.

`CCO[C@H]1CCN(Cc2c(OC)cc(C)c3[nH]ccc23)[C@H](c2ccc(C(=O)O)cc2)C1` [LNP023, Iptacopan]: in the assay on classical pathway, the “inhibition of the classical pathway” value is reported as “does not inhibit the classical pathway”.
For the compound Pegcetacoplan [APL-2], the IC50 in assay [1] came to 316 nM; in assay [2] it was 274 nM; on C3 convertase (C3bBb) it was 200 nM; in the assay with classical pathway (2% normal human serum, sheep erythrocytes), 1020 nM; in assay [3] it was 147 nM.

The values are drawn from US20260308278A1, “ANTIBODY THAT BINDS TO C3bBb” (Hoffmann-La Roche Inc., priority 2023, published 2026).
